For ten molecules, MTC, Activity and minimal effective dose results are on record in ChEMBL document CHEMBL3045427, “Synthesis, anticonvulsant and neurotoxic activity of some new 2,5-disubstituted-1,3,4-oxadiazoles” (Med Chem Res, 2011).

Active and inactive are the calls of the source. The rule behind the calls is not given here.

The test system of series [1] is Mus musculus. Description: Neurotoxicity in ip dosed Mus musculus albino (mouse) assessed as minimal motor impairment after 0.5 hr by rotarod test. In kind it is toxicity, organism-based. Particulars: in vivo. (Falling from the rotarod earlier than controls is read as motor impairment.)
Series [2] concerns Mus musculus. Briefly: Anticonvulsant activity in Mus musculus albino (mouse) assessed as protection against subcutaneous metrazole-induced seizure at 300 mg/kg, ip after 4 hr. In kind it is functional, organism-based. Further details: dose 300 mg/kg.
In series [3] the test system is Mus musculus. Briefly: Neurotoxicity in ip dosed Mus musculus albino (mouse) assessed as minimal motor impairment after 4 hr by rotarod test. The conditions noted are these: in vivo. In kind it is toxicity, organism-based.
In series [4] the test system is Mus musculus. Description: Anticonvulsant activity in ip dosed Mus musculus albino (mouse) assessed as protection against maximal electroshock-induced seizure after 4 hr. It is filed as functional. Particulars: read-out: MED. (In general: In the maximal electroshock model the usual endpoint is tonic extension of the hind limbs.)
For series [5], the system named is Mus musculus. Description: Anticonvulsant activity in ip dosed Mus musculus albino (mouse) assessed as protection against maximal electroshock-induced seizure after 0.5 hr. It is filed as functional. Particulars: read-out: MED.
The test system of series [6] is Mus musculus. Description: Anticonvulsant activity in Mus musculus albino (mouse) assessed as protection against subcutaneous metrazole-induced seizure at 300 mg/kg, ip after 0.5 hr. It is filed as functional, organism-based. Further details: dose 300 mg/kg.
The test system of series [7] is Mus musculus. Description: Neurotoxicity in Mus musculus albino (mouse) assessed as minimal motor impairment at 300 mg/kg, ip after 4 hr by rotarod test. It is filed as toxicity, organism-based. Further details: dose 300 mg/kg, route intraperitoneal. The conditions noted are these: in vivo.
Series [8] relates to Mus musculus. Description: Anticonvulsant activity in Mus musculus albino (mouse) assessed as protection against maximal electroshock-induced seizure at 300 mg/kg, ip after 0.5 hr. It is filed as functional, organism-based. Also on record: dose 300 mg/kg.
In series [9] the test system is Mus musculus. Briefly: Neurotoxicity in Mus musculus albino (mouse) assessed as minimal motor impairment at 300 mg/kg, ip after 0.5 hr by rotarod test. It is filed as toxicity, organism-based. Further details: dose 300 mg/kg, route intraperitoneal. Particulars: in vivo.
In series [10] the test system is Mus musculus. Description: Anticonvulsant activity in ip dosed Mus musculus albino (mouse) assessed as protection against subcutaneous metrazole-induced seizure after 4 hr. It is filed as functional. Particulars: read-out: MED.
Series [11] concerns Mus musculus. Description: Anticonvulsant activity in ip dosed Mus musculus albino (mouse) assessed as protection against subcutaneous metrazole-induced seizure after 0.5 hr. It is filed as functional. The conditions noted are these: read-out: MED.
The subject of series [12] is Mus musculus. Description: Anticonvulsant activity in Mus musculus albino (mouse) assessed as protection against maximal electroshock-induced seizure at 300 mg/kg, ip after 4 hr. It is filed as functional, organism-based. Further details: dose 300 mg/kg.

`O=C1NC(=O)C(c2ccccc2)(c2ccccc2)N1` [PHENYTOIN]: the MTC in the series on Mus musculus [1] and with Mus musculus [3] was 100 mg/kg in each case. Also, the outcome in the series with Mus musculus [2] and in the series with Mus musculus [6] was inactive. The minimal effective dose with Mus musculus [4] and in the series with Mus musculus [5] was 30 mg/kg in each case.

For `COc1ccc(-c2nnc(NC(=O)N/N=C\C=C(\C)CCC=C(C)C)o2)cc1`, the Activity entry in the series with Mus musculus [7] and with Mus musculus [9] was “Non-toxic” in each case. For the same molecule, the result with Mus musculus [8], in the series on Mus musculus [2] and with Mus musculus [6] was inactive. Also, in the series on Mus musculus [4], the minimal effective dose was 300 mg/kg.

Take `CC(C)=CCC/C(C)=C\C=N/c1nnc(-c2ccc(Cl)cc2)o1`: the Activity entry in the series on Mus musculus [7] and in the series with Mus musculus [9] was “Non-toxic” each time. For the same molecule, the outcome with Mus musculus [8] and in the series on Mus musculus [6] was inactive. In addition, the minimal effective dose with Mus musculus [10] and in the series on Mus musculus [4] was 300 mg/kg in each case.

On to `CC(C)=CCC/C(C)=C\C=N/NC(=O)Nc1nnc(-c2ccc(C)cc2)o1`, for which the Activity entry with Mus musculus [7] and with Mus musculus [9] was “Non-toxic” each time. The result in the series on Mus musculus [8], with Mus musculus [2] and in the series on Mus musculus [6] was inactive. For the same molecule, the minimal effective dose in the series on Mus musculus [4] amounted to 300 mg/kg.

Take `NC(=O)N1c2ccccc2C=Cc2ccccc21` [CARBAMAZEPINE]: the MTC in the series with Mus musculus [1] stood at 100 mg/kg; with Mus musculus [3], 300 mg/kg. The minimal effective dose in the series with Mus musculus [10] came to 300 mg/kg; with Mus musculus [11], 100 mg/kg; with Mus musculus [4], 100 mg/kg; with Mus musculus [5], 30 mg/kg.

Turning to `CC(C)=CCC/C(C)=C\C=N/NC(=O)Nc1nnc(-c2ccc(Cl)cc2)o1`, the Activity result in the series with Mus musculus [7] and in the series on Mus musculus [9] was “Non-toxic” in each case. Also, the result in the series on Mus musculus [12], in the series with Mus musculus [2] and with Mus musculus [6] was inactive. Moreover, the minimal effective dose in the series on Mus musculus [5] worked out at 30 mg/kg.

On to `CC(C)=CCC/C(C)=C\C=N/c1nnc(-c2ccccc2)o1`, for which the MTC in the series on Mus musculus [1] and in the series on Mus musculus [3] was 300 mg/kg throughout. Moreover, the minimal effective dose with Mus musculus [10] stood at 300 mg/kg; in the series with Mus musculus [11], 300 mg/kg; with Mus musculus [4], 100 mg/kg; with Mus musculus [5], 30 mg/kg.

In the case of `CC(C)=CCC/C(C)=C\C=N/c1nnc(-c2ccc(C)cc2)o1`, the Activity result with Mus musculus [7] and in the series on Mus musculus [9] was “Non-toxic” throughout. The outcome in the series with Mus musculus [12], in the series with Mus musculus [8], in the series on Mus musculus [2] and with Mus musculus [6] was inactive.

As to `COc1ccc(-c2nnc(/N=C\C=C(\C)CCC=C(C)C)o2)cc1`, the Activity entry in the series on Mus musculus [7] and in the series with Mus musculus [9] was “Non-toxic” in each case. Also, the result in the series with Mus musculus [12], with Mus musculus [8], in the series with Mus musculus [2] and with Mus musculus [6] was inactive.

Turning to `CC(C)=CCC/C(C)=C\C=N/NC(=O)Nc1nnc(-c2ccccc2)o1`, the Activity entry with Mus musculus [7] and with Mus musculus [9] was “Non-toxic” each time. In addition, the outcome in the series on Mus musculus [8], with Mus musculus [2] and with Mus musculus [6] was inactive. Moreover, the minimal effective dose with Mus musculus [4] was 300 mg/kg.
